Here are results for four compounds from EP4722213A1, “NITROGEN-CONTAINING FUNCTIONAL GROUP-SUBSTITUTED PYRIDAZINOPYRIDONE DERIVATIVE AND USE THEREOF” (Sichuan Huiyu Pharmaceutical Co., Ltd., priority 2023, dated 2024).

One data set addresses T1, SOS1 (Homo sapiens, UniProt Q07889).
T1 sequence (Q07889 1-1333): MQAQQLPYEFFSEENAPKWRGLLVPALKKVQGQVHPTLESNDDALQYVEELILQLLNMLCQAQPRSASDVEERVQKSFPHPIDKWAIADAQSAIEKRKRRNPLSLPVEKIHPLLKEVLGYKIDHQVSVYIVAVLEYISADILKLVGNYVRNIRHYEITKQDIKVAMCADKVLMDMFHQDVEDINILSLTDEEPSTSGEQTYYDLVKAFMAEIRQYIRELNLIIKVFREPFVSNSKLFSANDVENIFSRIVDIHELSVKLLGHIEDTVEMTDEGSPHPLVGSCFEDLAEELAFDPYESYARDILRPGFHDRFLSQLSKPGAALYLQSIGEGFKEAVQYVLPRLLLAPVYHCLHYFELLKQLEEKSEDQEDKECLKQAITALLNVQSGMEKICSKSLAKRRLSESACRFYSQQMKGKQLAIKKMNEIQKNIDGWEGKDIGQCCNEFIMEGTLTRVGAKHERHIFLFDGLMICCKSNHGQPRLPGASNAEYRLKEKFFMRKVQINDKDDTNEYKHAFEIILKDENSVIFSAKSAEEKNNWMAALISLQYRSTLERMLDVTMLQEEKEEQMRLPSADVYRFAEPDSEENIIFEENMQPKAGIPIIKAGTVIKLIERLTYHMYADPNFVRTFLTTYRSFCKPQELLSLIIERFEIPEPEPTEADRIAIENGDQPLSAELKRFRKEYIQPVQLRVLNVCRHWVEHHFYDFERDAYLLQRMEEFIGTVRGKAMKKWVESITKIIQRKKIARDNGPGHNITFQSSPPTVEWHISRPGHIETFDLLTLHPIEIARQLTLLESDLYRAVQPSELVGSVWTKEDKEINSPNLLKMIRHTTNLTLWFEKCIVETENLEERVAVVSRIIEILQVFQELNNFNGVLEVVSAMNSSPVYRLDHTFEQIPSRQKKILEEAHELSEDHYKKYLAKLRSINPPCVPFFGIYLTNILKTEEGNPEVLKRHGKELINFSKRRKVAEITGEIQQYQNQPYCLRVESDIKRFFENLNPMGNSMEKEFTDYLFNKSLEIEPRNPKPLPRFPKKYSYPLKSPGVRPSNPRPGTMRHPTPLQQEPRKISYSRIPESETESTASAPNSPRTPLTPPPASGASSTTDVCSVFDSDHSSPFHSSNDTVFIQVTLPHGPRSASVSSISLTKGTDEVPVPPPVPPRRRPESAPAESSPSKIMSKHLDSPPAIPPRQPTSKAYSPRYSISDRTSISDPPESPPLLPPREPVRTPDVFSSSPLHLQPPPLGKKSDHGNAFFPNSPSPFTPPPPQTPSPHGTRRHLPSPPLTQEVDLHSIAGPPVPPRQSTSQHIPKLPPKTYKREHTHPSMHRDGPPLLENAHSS
Briefly: biochemical.

The nature of data set [1]: Rat liver microsomal metabolic stability. It counts as in vitro ADME. The note with it: rat liver microsomes; for half-life at 1 µM: NADPH, 37°C; for CLint scaled at 1 µM: calculated from T1/2, fu defaulted to 1, read-out: CL(liver). From the text:
Metabolic stability affects the clearance rate, half-life, and oral bioavailability of compounds in the body, and is one of the most important ADME drug-like properties of compounds. Hepatocyte microsomal stability assay is a commonly used method for studying metabolic stability. In the present disclosure, rat liver microsomes are used to determine and investigate the metabolic stability of compounds.
Preparation of compound stock solution: an appropriate amount of the test compound and testosterone was taken, and a 1 mM stock solution was prepared with DMSO, which was stored in a refrigerator at 4°C.
Preparation of compound working solution: The 1 mM compound stock solution was taken respectively, and then diluted to 100 µM with acetonitrile-water (v:v = 1:1) to obtain the working solution.
Preparation of NADPH working solution: an appropriate amount of NADPH was weighed and dissolved in 16 mM MgCl2 to prepare a NADPH working solution with a concentration of 4.0 mM.
Preparation of rat liver microsome working solution: an appropriate amount of rat liver microsomes was taken and diluted with PBS to obtain a liver microsome working solution with a concentration of 1 mg/mL.
In the incubation system, 48 µL of PBS, 100 µL of rat liver microsome working solution, and 2 µL of the test compound working solution were sequentially added and mixed well. After pre-incubation at 37°C for 5 min, 50 µL of NADPH was added to initiate the reaction. After incubation for the corresponding time points, an appropriate amount of ice-cold acetonitrile containing an internal standard was added to terminate the reaction. The mixture was vortexed to mix well, centrifuged, and the supernatant was collected. The supernatant was injected into LC-MS/MS for detection of the residual metabolic amount of the compound.
Softwares of Excel, etc. were used for data processing according to the following formula. Ct = C0 •e^(−ke •t) [formula] when Ct = (1)/(2)C0 [formula] , T1/2 = (Ln2)/(ke) = (0.693)/(ke) [formula] CLint(mic) = (0.693)/(In vitro T1/2)•(1)/(mg/mL microsomal protein in reaction system) [formula] CLint(liver) = CLint(mic) •(mg microsomes)/(g liver)•(g liver)/(kg body weight) [formula] CL(liver) = (CLint(liver)×fu×Qh)/(CLint(liver)×fu+Qh) [formula] fu (unbound fraction in blood) was defaulted to be 1.

The target of another data set is T2, CYP3A4 (Homo sapiens, UniProt P08684).
T2 construct: human liver microsomes were used as the CYP450 enzyme source; from tissue; host or cells: human liver microsomes
Briefly: Inhibition of hepatic drug-metabolizing enzymes in human liver microsomes (substrates midazolam and testosterone). It counts as in vitro ADME. From the text: (§1) The main site of drug metabolism is the liver, and the main component of the mixed-function oxidase system present in the liver is the CYP450 enzyme. This enzyme system causes most clinically observed drug-drug interactions, which in turn leads to an increased incidence of adverse drug reactions. CYP450 is a group of supergene family composed of many isozymes, wherein CYP3A4 acts as a major metabolizing enzyme and is involved in the metabolism of nearly half of clinically used drugs. Similarly, CYP2C9 and CYP2C19 also act as important metabolizing enzymes and are involved in the metabolism of various drugs clinically. Therefore, evaluating the risk of drug-drug interactions by testing the inhibitory activity of compounds on CYP450 enzymes at an early stage can improve the safety of medication use.
(§2) In the present disclosure, human liver microsomes were used as the CYP450 enzyme source. The specific probe substrates for each CYP isoenzyme (wherein CYP3A4 used two substrates, midazolam and testosterone, denoted as CYP3A4-M and CYP3A4-T respectively) were incubated with a series of concentrations of the test compound in the presence of the cofactor NADPH. The production amount of metabolites of probe substrates in the incubation system was determined by LC-MS/MS, and the IC50 values of the test compound against each CYP450 enzyme subtype were calculated to evaluate its inhibitory effect on each CYP450 enzyme subtype. During the experiment, 49 µL of PBS, 50 µL of probe substrate, and 50 µL of human liver microsome working solution were sequentially added to the incubation system, followed by the addition of 1 µL of the test compound working solution at each concentration, and the mixture was mixed well. After pre-incubation at 37°C for 5 min, 50 µL of NADPH was added to initiate the reaction. After incubation for the corresponding time, an appropriate amount of ice-cold acetonitrile containing an internal standard was added to terminate the reaction. The mixture was vortexed to mix well, centrifuged, and the supernatant was taken. The supernatant was injected into LC-MS/MS to determine the production amount of metabolites of the probe substrate. Taking the enzyme activity at the 0-concentration point (characterized by the production amount of metabolites) as 100%, the percentage of residual enzyme activity of metabolites at different concentrations of the test compound was calculated. IC50 was calculated by the residual enzyme activity using Graphpad Prism software.
(In general: Microsomes from liver hold many membrane-bound enzymes, among them those of drug oxidation.)

The target in another data set is T3, CYP2C9 (Homo sapiens, UniProt P11712).
T3 construct: human liver microsomes were used as the CYP450 enzyme source; from tissue; host or cells: human liver microsomes
Briefly: Inhibition of hepatic drug-metabolizing enzymes in human liver microsomes. It counts as in vitro ADME. The note with it: human liver microsomes; read-out: Inhibitory activity on drug-metabolizing enzymes (IC50, µM) CYP2C9.
From the text: as §1, §2

The next data set concerns the target T4, CYP2C19 (Homo sapiens, UniProt P33261).
T4 construct: human liver microsomes were used as the CYP450 enzyme source; from tissue; host or cells: human liver microsomes
Described as above. It counts as in vitro ADME. The note with it: human liver microsomes; read-out: Inhibitory activity on drug-metabolizing enzymes (IC50, µM) CYP2C19.
From the text: as §1, §2

Data set [2] relates to NCI-H358 non-small cell lung cancer cells. The data set is described as follows: Inhibition of NCI-H358 cell proliferation (CellTiter-Glo 3D, 7 days). Type of data set: cell-based. The note with it: Homo sapiens, NCI-H358, 168 h, 3D microspheres, read-out: Inhibitory activity against NCI-H358 cell proliferation (IC50). Summed up: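 NCI-H358 cells at 2000/well in ultra-low attachment plates grown overnight into spheroids, then exposed to 8-point 5-fold compound dilutions in RPMI-1640/10% FBS for 7 days at 37 °C. Viability by CellTiter-Glo 3D luminescence; inhibition relative to no-inhibitor and cell-free controls.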
For orientation: Cellular ATP, detected with luciferase, serves as a proxy for viable cell number.

[3] abbreviates: substrate midazolam, read-out: Inhibitory activity on drug-metabolizing enzymes (IC50, µM) CYP3A4-M.
[4] abbreviates: substrate testosterone, read-out: Inhibitory activity on drug-metabolizing enzymes (IC50, µM) CYP3A4-T.

Read-outs that look alike come from different tables or passages of the source.

T3 sequence (P11712 whole entry): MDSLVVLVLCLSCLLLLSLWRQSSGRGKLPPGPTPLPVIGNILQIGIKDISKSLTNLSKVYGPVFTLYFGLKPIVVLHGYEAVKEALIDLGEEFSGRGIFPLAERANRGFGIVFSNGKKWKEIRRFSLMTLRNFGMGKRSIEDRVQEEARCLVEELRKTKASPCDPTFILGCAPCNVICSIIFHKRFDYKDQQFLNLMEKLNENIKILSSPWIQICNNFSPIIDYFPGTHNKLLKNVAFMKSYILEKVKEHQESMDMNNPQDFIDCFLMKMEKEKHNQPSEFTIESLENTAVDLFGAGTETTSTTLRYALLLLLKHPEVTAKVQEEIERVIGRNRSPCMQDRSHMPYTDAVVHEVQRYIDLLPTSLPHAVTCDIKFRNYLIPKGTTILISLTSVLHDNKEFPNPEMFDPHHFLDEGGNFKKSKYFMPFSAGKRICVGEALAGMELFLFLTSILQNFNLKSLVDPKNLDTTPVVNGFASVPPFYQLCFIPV
T4 sequence (P33261 whole entry): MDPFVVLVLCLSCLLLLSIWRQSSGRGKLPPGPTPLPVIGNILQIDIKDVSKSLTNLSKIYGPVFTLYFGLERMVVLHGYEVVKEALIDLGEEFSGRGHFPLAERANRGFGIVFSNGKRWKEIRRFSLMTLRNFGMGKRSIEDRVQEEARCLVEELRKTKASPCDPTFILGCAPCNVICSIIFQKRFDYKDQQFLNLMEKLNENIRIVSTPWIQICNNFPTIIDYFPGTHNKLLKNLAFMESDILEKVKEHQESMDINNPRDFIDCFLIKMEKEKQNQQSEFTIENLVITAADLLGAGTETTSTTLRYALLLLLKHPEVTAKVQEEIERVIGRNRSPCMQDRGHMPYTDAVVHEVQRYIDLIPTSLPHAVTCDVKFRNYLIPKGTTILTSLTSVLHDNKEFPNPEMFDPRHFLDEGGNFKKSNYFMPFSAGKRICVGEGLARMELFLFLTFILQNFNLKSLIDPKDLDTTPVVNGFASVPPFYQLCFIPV
T2 sequence (P08684 whole entry): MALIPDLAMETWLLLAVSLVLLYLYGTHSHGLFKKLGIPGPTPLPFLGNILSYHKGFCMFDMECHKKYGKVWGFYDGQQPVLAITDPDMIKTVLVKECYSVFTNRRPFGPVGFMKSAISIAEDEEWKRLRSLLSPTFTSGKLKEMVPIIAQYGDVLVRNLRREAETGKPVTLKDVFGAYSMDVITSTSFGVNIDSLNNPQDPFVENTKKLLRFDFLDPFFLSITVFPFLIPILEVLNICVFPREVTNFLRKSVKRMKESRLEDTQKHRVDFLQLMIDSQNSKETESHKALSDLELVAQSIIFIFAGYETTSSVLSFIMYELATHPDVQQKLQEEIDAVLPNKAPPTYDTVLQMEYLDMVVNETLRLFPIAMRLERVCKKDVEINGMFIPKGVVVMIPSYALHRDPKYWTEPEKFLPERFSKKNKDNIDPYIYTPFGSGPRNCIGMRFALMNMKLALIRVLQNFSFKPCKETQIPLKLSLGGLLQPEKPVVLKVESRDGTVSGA

With `CNc1nnc(N[C@H](C)c2cccc(C(F)F)c2F)c2cn(C3CC3)c(=O)cc12` [Example 13, (R)-6-cyclopropyl-4-((1-(3-(difluoromethyl)-2-fluorophenyl)ethyl)amino)-1-(methylamino)pyrid o[3,4-d]pyridazin-7(6H)-one], the IC50 against SOS1 is 4.6 nM; on CYP3A4 (setting [3]) it was > 10 µM; on CYP3A4 (setting [4]) it was > 10 µM; on CYP2C9 it was > 10 µM; on CYP2C19, > 10 µM. The compound further showed a half-life at 1 µM in data set [1] of 238 min. Also, the CLint scaled at 1 µM in data set [1] is 8.8 mL/min/kg.

On to `C[C@@H](Nc1nnc(N)c2cc(=O)n(C3(C)CC3)cc12)c1cccc(C(F)F)c1F.O=CO` [Example 74, (R)-1-amino-4-((1-(3-(difluoromethyl)-2-fluorophenyl)ethyl)amino)-6-(1-methylcyclopropyl) pyrido[3,4-d]pyridazin-7(6H)-one formate], for which the IC50 was 4.6 nM at SOS1; > 10 µM at CYP3A4 (setting [3]); > 10 µM at CYP3A4 (setting [4]); > 10 µM at CYP2C9; > 10 µM at CYP2C19. Moreover, the half-life at 1 µM in data set [1] was > 300 min. Further, the CLint scaled at 1 µM in data set [1] was < 7.23 mL/min/kg.

Take `C[C@@H](Nc1nnc(N)c2cc(=O)n(C3CC3)cc12)c1cccc(C(F)F)c1F` [Example 75, (R)-1-amino-6-cyclopropyl-4-((1-(3-(difluoromethyl)-2-fluorophenyl)ethyl)amino)pyrido[3,4-d]pyridazin-7(6H)-one]: the IC50 against SOS1 is 4.8 nM; on CYP3A4 (setting [3]), > 10 µM; at CYP3A4 (setting [4]), > 10 µM; on CYP2C9, > 10 µM; at CYP2C19, > 10 µM. In data set [1], the half-life at 1 µM was > 300 min. Also, the CLint scaled at 1 µM in data set [1] was < 7.23 mL/min/kg.

On SOS1, `C[C@@H](Nc1nnc(N2CCN(C3CCCC3)CC2)c2cc(=O)n(C3(C)CC3)cc12)c1cccc(C(F)F)c1F` [Example 221, (R)-1-(4-cyclopentylpiperazin-1-yl)-4-((1-(3-(difluoromethyl)-2-fluorophenyl)ethyl)amino)-6-(1-methylcyclopropyl) pyrido[3,4-d]pyridazin-7(6H)-one] came in with an IC50 of 5 nM. For the same compound, in data set [1], the half-life at 1 µM was found to be 67.3 min and the CLint scaled at 1 µM is 22.2 mL/min/kg. In data set [2], the IC50 came out at 53.6 nM.

The term half-life denotes the time in which the quantity being followed falls by half. Higher therefore signals slow loss.
